Source: a melting point compilation (Tetko et al.; mined from patent text by program, amines drawn as free bases though some values may be those of a salt)

Compound	melting point
CCCCCCCCCCCCCCCCCCOCCO	39 to 41 °C
CCOC(=O)c1cnc2ccc(Oc3ccccc3)nc2c1Cl	133 to 137 °C
COc1nc2ccccc2cc1N(C)C(=O)N1CCN(c2cc(C)cc(C)c2)CC1	142 to 143 °C
CCCc1c(OCCCC(=O)NCCCCc2cccnc2)ccc(C(C)=O)c1O	80 to 82 °C
CCN(CC)C(=O)c1cc2c(cn1)[nH]c1ccccc12	170 °C
Nc1nc(F)cc(OCc2ccccc2)n1	96 to 98 °C
NC1=NN(c2ccccn2)C(c2ccccc2)C1 (stereo not drawn)	203 to 206 °C
O=C(C=Cc1c(-c2ccccc2)nn2ccccc12)N1CCCC[C@@H]1CCO	145 to 146 °C
Cn1c(COc2ccc(CC3SC(=O)NC3=O)cc2)nc2cc(C(F)(F)F)cnc21 (stereo not drawn)	212 to 214 °C
COc1cc(CO)ccc1OCc1nc(-c2ccccc2)sc1C	134 to 135 °C
CCOC(=O)c1cnc2n(CC)c3ccccc3n2c1=O	118 to 120 °C
COC(=O)c1ccc(-c2ccc(Br)c3nsnc23)cc1	188 to 192 °C
Brc1ccc(O[C@H]2CCNC[C@H]2c2ccccc2)cc1 (relative stereo)	113 to 115 °C
CCOP(=O)(CC1(O)CC=Cc2ccccc21)OCC (stereo not drawn)	120 to 121 °C
O=S(=O)(Nc1ccccc1)c1ccc(NC(=S)Nc2ccccc2)cc1	160 to 162 °C
CC(C)C(c1ccc2[nH]c(=O)c(C(=O)O)nc2c1)n1ccnc1 (stereo not drawn)	238 °C
CC(C)(C)c1cc(-n2nc3ccc(Cl)cc3n2)c(O)c(C(C)(C)c2ccc(Cl)cc2)c1	130 to 131 °C
CSc1nc(N)c(O)c(=O)[nH]1	243 to 245 °C
CC(C)NP(N)(=O)NC(=O)c1ccc(F)cc1 (stereo not drawn)	197 to 199 °C
Cc1ccc2c(c1)CC(=O)N2	168 °C
CN(C)CCc1c[nH]c2ccc(CCC(=O)O)cc12	195 to 200 °C
CC(=O)n1nc(CBr)c(Oc2cc(Cl)cc(C#N)c2)c1C	122 to 123 °C
Cn1c(=O)cnn(-c2cc(Cl)c(C(C#N)c3ccc(Cl)cc3)c(Cl)c2)c1=O (stereo not drawn)	160 °C
CC1(C)c2ccc([N+](=O)[O-])cc2C(NC(=O)Nc2ccccc2)C1O (stereo not drawn)	194 to 195 °C
CCOC(=O)c1cc(C(C)=O)[nH]n1	114 to 115 °C
CON=C(C)c1cc2c(Oc3ccc(Cl)cc3)cncc2s1	126 to 128 °C
Cc1cc(N2CC=C(C(N)=O)CC2)c2cccc(-c3ccc(Cl)cc3Cl)c2n1	264 to 266 °C

Compound	melting point
O=C(c1ccccc1)c1ccc2nc(-c3c[nH]c(C(=O)N4CCCC4)c3)[nH]c2c1	160 to 162 °C
FC(F)(F)c1ccc2nc(-c3ccccc3)oc2n1	127 to 129 °C
O=C(O)CCCCCc1ccc2ccccc2n1	105 to 108 °C
COC(=O)C(O)C(Sc1ccc2ccccc2c1N)c1ccc(OC)cc1 (stereo not drawn)	132 to 134 °C
COCCOc1ccc(/C=C/C(=O)O)c(Oc2ncc(Br)cc2C)c1	157 to 158 °C
O=C(O)COc1cc(F)ccc1C(=S)NCc1ccc(Br)cc1F	154 to 157 °C
N#CC1(CCCCCCCCCCCCC2(C(=O)O)CC2)CC1	44.4 to 46.9 °C
COc1ccc2c(C(C)C(=O)O)cnc(Cl)c2c1 (stereo not drawn)	167 to 168 °C
COC(=O)c1ccccc1S(=O)(=O)Cc1c(O[C@H](Cn2ccnc2)c2ccccc2)ccc2c1CCCC2=O	203 to 205 °C
Cc1nc(-c2ccc(OCC(C)C)c(C=O)c2)sc1C(=O)O	213 to 217 °C
COc1cc2nc(C)nc(Cl)c2cc1OCCCN1CCOCC1	116 to 118 °C
CC(c1ccc(-c2ccccc2)c(F)c1)c1csc(NCCc2ccccc2)n1 (stereo not drawn)	74.5 to 75.5 °C
CCC1=NN=C(c2ccc(OC)c(OC)c2)c2cc(OC)c(OC)cc2C1C (stereo not drawn)	157 to 158 °C
COC(OC)C(CC(=O)O)C(C)(C)S(=O)(=O)c1ccc(C)cc1 (stereo not drawn)	144 °C
CCOC(=O)Nc1cccc(CBr)c1C(=O)OCC	70 to 72 °C
Cc1nn(-c2ccc(C#N)c(Cl)c2)c(C)c1Cc1ccc(C(=O)N2CC(O)C2)cc1	115 to 117 °C
COc1c(CBr)c(OC)c(CBr)c(OC)c1CBr	126 °C
CCCc1ncc(/C=C2\C(=O)N(CC(=O)OC)c3cccc(C)c32)n1Cc1ccc(C(=O)OC)cc1	228 to 230 °C
Nc1ccc(C(=O)c2ccccc2)cc1CC(=O)O	143 to 145 °C
CCCCCCCCCCCCCCOc1ccc(OC(=O)N(C)Cc2ccccn2)cc1	67 to 68 °C
O=C(O)c1ccc2c(c1)C(=O)c1cccc(C(=O)O)c1S2(=O)=O	350 to 351 °C
Cc1nc(C#CCCn2nc3ccccc3n2)sc1C	96 to 98 °C
O=C1Nc2cccc(-c3ccoc3)c2C12COc1cc3c(cc12)OCO3 (stereo not drawn)	230 to 231 °C
CN(C)c1nnc(Br)c(=O)[nH]1	261 to 262 °C
Clc1ccc(-c2cc(C3CCN(CC4CCCCC4)CC3)n[nH]2)cc1	186 to 187 °C
Cc1ccc2sc3cc(C(=O)O)ccc3c(=O)c2c1	> 250 °C
